# According to patent US11484032B2, “Compositions for inhibition of insect sensing” (Vanderbilt University, priority 2011, dated 2022):
# Tests used:
# Type in all cases: cell-based
# [1] = biological target: T1, Orco 28 + Orco (Anopheles gambiae, UniProt Q7QCC7); experiment: Ca2+ imaging, cells expressing Orco + OR28 (Table 1 head "Orco 28 + Orco"); conditions: for Orco 28 + Orco Potentiator % increase: potentiator mode
# T1 construct: expressed in transfected cells
# T1 sequence (Q7QCC7 1-478): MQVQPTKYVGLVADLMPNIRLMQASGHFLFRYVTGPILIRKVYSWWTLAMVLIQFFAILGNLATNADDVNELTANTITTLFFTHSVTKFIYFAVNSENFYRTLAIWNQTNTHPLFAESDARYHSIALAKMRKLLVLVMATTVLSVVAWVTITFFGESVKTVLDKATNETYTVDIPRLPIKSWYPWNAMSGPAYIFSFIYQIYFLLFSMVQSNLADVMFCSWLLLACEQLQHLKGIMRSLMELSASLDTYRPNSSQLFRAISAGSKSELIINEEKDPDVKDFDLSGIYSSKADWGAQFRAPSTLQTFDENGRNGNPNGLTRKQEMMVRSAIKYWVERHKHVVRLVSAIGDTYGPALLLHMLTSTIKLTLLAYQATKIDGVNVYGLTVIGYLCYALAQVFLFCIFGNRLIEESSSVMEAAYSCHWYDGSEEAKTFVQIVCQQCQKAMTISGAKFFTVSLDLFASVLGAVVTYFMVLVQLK
# Experimental: (§1) The activity against insect odorant sensory receptors was evaluated for various disclosed compounds, and the data were collected in Table 1.
# [2] = biological target: T2, AgORco+AgOR10 (Anopheles gambiae, UniProt Q7QCC7); experiment: Fluo-4 Ca2+ imaging, HEK293 cells expressing Orco+AgOR10; design: Orco 10 + Orco Angatonist % Reduction / Orco 10 + Orco Agonist % of control: concentration or dose not given beside the values; conditions: for Orco 10 + Orco Potentiator % increase: potentiator mode
# T2 construct: expressed in transfected cells
# T2 sequence (Q7QCC7 1-478): T1 sequence (Q7QCC7 1-478)
# Text: For transient transfections, ORs were cloned into pCl (Promega) and transfected into Flp-In™ T-REx™293 cell lines (Invitrogen) with Fu GENE6 (Roche). For the creation of stable cell lines, a cell culture expression vector capable of expressing Orco in conjunction with a conventional OR, pcDNA5/FRT/TO (Invitrogen) was modified to create two individual expression cassettes each under the control of a separate CMV/Tet02 promoter and a BGH poly-adenylation signal. Cells (as above) were transfected with the modified pcDNA5 plasmid along with POG44 (a Flp recombinase expression plasmid) to facilitate site-specific recombination. Stable cell lines were selected using Hygromycin B (Invitrogen). Cells were maintained in DMEM (Invitrogen) supplemented with 10% Tetracycline-free FBS (HyClone) and 15 ng/ml Blasticidin. For fluorometric Ca2+ measurements, stable lines expressing ORs of interest were seeded at 20,000 cells/well in black wall, poly-lysine coated 384-well cell culture plates (Greiner) and treated with […] tetracycline (Sigma) overnight to induce OR expression. Cells were dye-loaded with 1.8 uM Fluo-4 AM (Molecular Probes), 2.5 mM Probenecid (Molecular Probes) in assay buffer (20 mM HEPES, IX HBSS) for 45 minutes at 37° C. in 5% CO2 prior to each assay. Ca^2+ mobilization was assayed in an FDSS6000 (Hamamatsu). Baseline readings were taken for 20 s before automated addition of compound previously diluted in DMSO and assay buffer. Ratios were described as Maximum/Minimum response and each response was normalized to the maximum responder.
# As part of an ongoing, cell based calcium imaging screen for novel small-molecule modulators of AgORs that might disrupt olfactory-driven mosquito behaviors (Rinker et al manuscript in preparation), the inventors identified a number of compounds that activated AgOR10+AgORco-expressing human embryonic kidney (HEK293) cells. One of these compounds, (FIG. 3 A) denoted here as VUAA1, elicited activity consistent with allosteric agonism and was pursued for its novel properties. The identity of VUAA1 was verified using high-resolution mass spectrometry (HRMS) as well as ^1H and ^13C NMR. […] As AgORco was the common element among these functional responses, the inventors postulated that VUAA1 was a potential AgORco agonist.
# [3] = biological target: T1, Orco 28 + Orco; experiment: Orco 28 + Orco: agonist / antagonist / potentiator screen (Table 1); conditions: for Orco 28 + Orco Antagonist % Reduction: antagonist mode; for Orco 28 + Orco Potentiator % increase: potentiator mode
# Experimental: as §1
# [4] = biological target: T1, Orco 28 + Orco; experiment: Activity against insect odorant sensory receptors, Orco 28 + Orco (Table 1); conditions: potentiator mode
# Experimental: as §1
# [5] = biological target: T2, AgORco+AgOR10; experiment: Whole-cell patch clamp, HEK293 cells expressing AgORco+AgOR10; conditions: AgORco+AgOR10 cells, holding potential −60 mV
# Experimental: (§2) Currents from OR-expressing HEK293 cells were amplified with an Axopatch 200b Amplifier (Axon Instruments) and digitized through a Digidata 1322A (Axon Instruments). Electrophysiological data was recorded and analyzed using pCLAMP 10 (Axon Instruments). Electrodes were fabricated from quartz tubing (Sutter Instruments) and pulled to 4-6 MiΩ for whole cell recording. Electrodes were filled with internal solution (120 mM KCl, 30 mM D-glucose, 10 mM HEPES, 2 mM MgCl2, 1.1 mM EGTA, and 0.1 CaCl2) (pH 7.35, 280 mOsm). External (bath) solution contained 130 mM NaCl, 34 mM D-glucose, 10 mM HEPES, 1.5 mM CaCl2), 1.3 mM KH2PO4, and 0.5 MgSO4 (pH 7.35, 300 mOsm). Compounds were diluted in external solution and locally perfused to the recording cell using Perfusion Pencil (Automate Scientific) and controlled by a ValveLink 8.2 controller (Automate Scientific). Whole cell recordings were sampled at 10 kHz and filtered at 5 kHz. Outside-out patches were obtained using 10-15MΩ electrodes pulled from standard glass capillaries (World Precision Instruments) and fire-polished with an MF-830 micro forge (Narishige). Single channel recordings were sampled at 20 kHz. Recordings were reduced to 1 kHz and low-pass filtered at 500 Hz for display and analysis using QuB (SUNY at Buffalo).
# (§3) To test the hypothesis that VUAA1 directly agonized AgORco, whole-cell patch clamp responses were examined in AgORco+AgOR10 expressing cells as well as HEK293 cells stably expressing AgORco alone. […] The VUAA1-dependent currents in AgORco+AgOR10 cells resembled those resulting from application of benzaldehyde, an orthosteric agonist of AgOR10 (FIG. 3C) (Wang, 2010; Carey, 2010). […] To investigate the specificity of VUAA1 agonism, the inventors transiently transfected HEK cells with the AgORco orthologs of Drosophila melanogaster and Heliothis virescens, DmORco and HvOR2 respectively.
# [6] = biological target: T3, AgORco (Anopheles gambiae, UniProt Q7QCC7); experiment: Whole-cell patch clamp, HEK293 cells stably expressing AgORco alone; conditions: AgORco alone cells, holding potential −60 mV
# T3 construct: expressed in transfected cells
# T3 sequence (Q7QCC7 1-478): T1 sequence (Q7QCC7 1-478)
# Experimental: as §2, §3
smiles,measurement,setting,value
O=C(CSc1nnc(-c2cccnc2)n1-c1ccc(Br)cc1)c1c[nH]c2ccccc12,Orco 28 + Orco Potentiator % increase,[1],19.9%
O=C(CSc1nnc(-c2cccnc2)n1Cc1ccccc1)Nc1ccc(F)cc1,Orco 28 + Orco Potentiator % increase,[1],16.12%
CCc1cccc(CC)c1-n1c(SCn2nnc3ccccc3c2=O)nnc1-c1cccnc1,Orco 28 + Orco Antagonist % Reduction,[1]; antagonist mode,22.91%
same,Orco 10 + Orco Angatonist % Reduction,"[2]; Orco 10 + Orco, antagonist mode",25.00%
NC(=O)CSc1nnc(-c2cccnc2)n1-c1ccccc1,Orco 28 + Orco Potentiator % increase,[1],15.18%
C=CCn1c(SCc2cc3c(cc2Cl)OCO3)nnc1-c1cccnc1,Orco 28 + Orco Antagonist % Reduction,[3],16.91%
CCn1c(SCC(=O)Nc2ccc(Cl)cc2C)nnc1-c1ccncc1,Orco 28 + Orco Potentiator % increase,[4],17.69%
Cn1c(SCC(=O)Nc2ccc(F)cc2)nnc1-c1cccnc1,Orco 28 + Orco Antagonist % Reduction,[3],11.09%
CCn1c(SCC(=O)NCc2ccco2)nnc1-c1cccnc1,Orco 10 + Orco Potentiator % increase,[2],10.23%
same,Orco 28 + Orco Antagonist % Reduction,[3],10.89%
CCn1c(SCc2nc3ccccc3[nH]2)nnc1-c1cccnc1,Orco 10 + Orco Potentiator % increase,[2],7.5%
same,Orco 28 + Orco Potentiator % increase,[3],15.1%
"Nc1nc2c(nc(Br)n2[C@@H]2O[C@@H]3COP(=O)(O)O[C@H]3[C@H]2O)c(=O)[nH]1 [8-Br cGMP, 8-Br-cGMP]",whole-cell current response,[5],unable to evoke whole-cell currents
same,whole-cell current response,[6],unable to evoke whole-cell currents
CC(=O)n1ccc2ccc(C(=O)CSc3nnc(-c4cccnc4)n3C)cc21,Orco 28 + Orco Antagonist % Reduction,[3],13.76%
Cc1ccc(NC(=O)CSc2nnc(-c3cccnc3)n2C)c(C)c1,Orco 28 + Orco Potentiator % increase,[3],12.63%
